The text below walks through data of ChEMBL document CHEMBL6153155, “Novel Cyclohexyl Amido Acid Antagonists of Lysophosphatidic Acid Type 1 Receptor for the Treatment of Pulmonary Fibrosis” (ACS Med Chem Lett, 2025).

Data set [1] can be described thus: Volume of distribution at steady state in female C57BL/6J mouse at 2 mg/kg, iv measured after 24 hrs by UPLC-MS/MS analysis. Type of data set: ADME, organism-based. Particulars: in vivo, read-out: Vdss.
Data set [2] is described as follows: Unbound AUClast in female C57BL/6J mouse plasma at 30 mg/kg, po measured after 24 hrs by UPLC-MS/MS analysis. Format: ADME, organism-based. The note with it: in vivo.
The target in data set [3] is Lysophosphatidic acid receptor 4 (Homo sapiens, UniProt Q99677). The data set can be described thus: Antagonist activity at human LPA4 expressed in CHO cells in presence of IBMX pretreated for 30 mins followed by LPA addition and measured after 1 hrs by cAMP accumulation assay. Format: functional, cell-based.
Lysophosphatidic acid receptor 4, sequence (Q99677 whole entry): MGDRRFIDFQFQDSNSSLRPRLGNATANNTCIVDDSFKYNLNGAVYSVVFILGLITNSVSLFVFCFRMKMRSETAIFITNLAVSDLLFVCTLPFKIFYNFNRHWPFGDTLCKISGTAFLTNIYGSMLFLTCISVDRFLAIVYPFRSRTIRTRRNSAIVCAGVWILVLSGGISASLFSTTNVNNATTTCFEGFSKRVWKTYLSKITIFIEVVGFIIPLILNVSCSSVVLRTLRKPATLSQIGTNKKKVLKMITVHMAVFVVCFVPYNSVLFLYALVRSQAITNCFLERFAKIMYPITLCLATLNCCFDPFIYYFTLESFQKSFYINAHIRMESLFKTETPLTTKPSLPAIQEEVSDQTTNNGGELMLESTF

As to `Cc1nc(-c2onc(C)c2NC(=O)O[C@H](C)c2ccccc2Cl)ccc1NC(=O)[C@H]1CCCC[C@@H]1C(=O)O`, in data set [1], the Vd came out at 0.16 L/kg. In addition, the fAUClast in data set [2] was found to be 3675 h/ng/mL. Also, the IC50 in data set [3] is 12.6 µM.
